The source of these data is PubChem BioAssay (NCI).

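1) Cells in 96-well plates. 2) Compound, 48 h, 5 concentrations. 3) Linear interpolation between surrounding doses. 4) Unreached endpoint = highest concentration. TGI marks complete inhibition of growth.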 Where a SMILES comes first, the peptide text is derived from it. [ ]: non-standard residue; d: D form. The star is where a group is joined. ξ: configuration not given here. ξW = NC(Cc1c[nH]c2ccccc12)C(=O)O; X30 = O=C(O)[C@H]1CCC[C@H]1N*; ξF = NC(Cc1ccccc1)C(=O)O; Boc = CC(C)(C)OC(=O)*; ξK = NCCCCC(N)C(=O)O; ξT = CC(O)C(N)C(=O)O; tBu = CC(C)(C)* Bounds are passed on as bounds.

Holding throughout (test): NCI tumour cell line growth inhibition, 48 h
Assay [1] deals with CCRF-CEM leukemia.
Assay [2] has as its system MALME-3M melanoma.
Assay [3] has as its system OVCAR-5 ovarian.
Assay [4] relates to 786-0 renal.
Assay [5] concerns HT29 colon.
For assay [6], the system named is SN12C renal.
Assay [7] concerns UACC-257 melanoma.
The test system of assay [8] is SR leukemia.
The subject of assay [9] is M14 melanoma.
Assay [10] has as its system A498 renal.
Assay [11] deals with HOP-62 NSCLC.
Assay [12] relates to NCI-H522 lung.
Assay [13] has as its system U251 CNS.
The subject of assay [14] is COLO 205 colon.
Assay [15] has as its system HCT-116 colon.
Assay [16] deals with SF-268 CNS.
The subject of assay [17] is RPMI-8226 leukemia.
In assay [18] the test system is SK-MEL-2 melanoma.
The subject of assay [19] is DU-145 prostate.

Consider `COC(=O)C(C(=O)C(=O)Nc1ccc([N+](=O)[O-])cc1)c1nc2cc(C)c(C)cc2[nH]c1=O` (centres undefined), for which the TGI in assay [1], in assay [2], in assay [3], in assay [4], in assay [5] and in assay [6] was above 100 µM throughout. In addition, the TGI in assay [7], in assay [8], in assay [9], in assay [10], in assay [11] and in [12] was above 100 µM throughout. In addition, the TGI in assay [13], in [14], in assay [15], in [16] and in [17] was above 100 µM in each case.
Take `Nc1ccc(-c2nc3ccc(Cc4ccc5nc(-c6ccc(N)cc6)oc5c4)cc3o2)cc1`: the TGI in assay [18], in [1], in assay [19], in assay [2], in assay [3] and in [4] was above 100 µM each time. For the same compound, the TGI in [5] is above 100 µM; in assay [6], above 100 µM; in [7] it was above 100 µM; in [8] it was 41.2 µM; in [9], above 100 µM; in assay [10] it was above 100 µM. The TGI in assay [12], in [13], in assay [14], in assay [15], in assay [16] and in assay [17] was above 100 µM throughout.
In the case of `CC(=O)O[C@]12CCCCC1C1(O)C(O)CCCC[C@H]12` (some centres undefined), the TGI in assay [18], in assay [1], in [2], in assay [4], in assay [5] and in assay [6] was above 100 µM each time. For the same compound, the TGI in [7], in assay [8], in assay [9], in assay [11], in assay [12] and in [13] was above 100 µM throughout. Moreover, the TGI in assay [14], in assay [15], in [16] and in [17] was above 100 µM each time.
Turning to `CCOc1ccc(N=Nc2c(-c3ccccc3)nn(C(=O)CC(=O)Nc3cccc(C)c3)c2-c2ccccc2)cc1`, the TGI in [18], in [1], in assay [2], in assay [3], in assay [4] and in assay [5] was above 100 µM throughout. The TGI in [6], in assay [7], in assay [8], in [9], in assay [11] and in assay [12] was above 100 µM in each case. Also, the TGI in [13], in assay [14], in assay [15], in [16] and in [17] was above 100 µM throughout.
With `COC(=O)C1CCC[C@H]2C(CO)=C(C)C(=O)[C@@H]12` (some centres undefined), the TGI in [18], in assay [1], in [2], in assay [3], in [4] and in assay [5] was above 100 µM in each case. Also, the TGI in assay [6], in assay [7], in assay [8], in assay [9], in assay [10] and in assay [11] was above 100 µM in each case. Moreover, the TGI in assay [12], in assay [13], in assay [14], in assay [15], in assay [16] and in assay [17] was above 100 µM throughout.
Take `COc1ccc(/C(Cl)=C(\CNc2ccccn2)c2ccccc2)cc1OC`: the TGI in assay [18], in [1], in assay [19], in [2], in assay [3] and in assay [4] was above 100 µM throughout. The TGI in [5], in [6], in assay [7], in assay [8], in [10] and in assay [11] was above 100 µM throughout. Further, the TGI in assay [12], in [13], in assay [14], in assay [15], in assay [16] and in assay [17] was above 100 µM in each case.
Regarding `CC(OC(C)(C)C)C(NC(=O)C(CCCCNC(=O)OC(C)(C)C)NC(=O)C(Cc1c[nH]c2ccccc12)NC(=O)C(N)Cc1ccccc1)C(=O)NC(Cc1ccccc1)C(=O)N[C@@H]1CCC[C@@H]1C(=O)O` (some centres undefined) (H-[ξF][ξW][ξK](Boc)[ξT](tBu)[ξF]-X30), the TGI in assay [18] was 41.5 µM; in assay [1], 92.4 µM; in [19] it was above 100 µM; in assay [2], above 100 µM; in assay [3], 40.6 µM; in assay [4] it was above 100 µM. Further, the TGI in assay [5] is 80.3 µM; in [6], 67.2 µM; in assay [7], above 100 µM; in [8], above 100 µM; in assay [9], above 100 µM; in assay [11] it was above 100 µM. Also, the TGI in assay [12] is 41 µM; in assay [13] it was 68.3 µM; in assay [14], 76.2 µM; in assay [15], above 100 µM; in assay [16] it was above 100 µM; in assay [17], above 100 µM.
Take `CN/N=C(/CC(=O)c1sc(-n2nc(-c3ccccc3)cc2-c2ccccc2)nc1C)C(=O)Nc1ccc(Cl)c(Cl)c1`: the TGI in assay [18] was above 100 µM; in assay [1] it was above 100 µM; in assay [2], above 100 µM; in assay [3] it was 69.6 µM; in assay [4], above 100 µM; in [5], above 100 µM. Also, the TGI in [6], in [7], in assay [8], in assay [10], in [11] and in assay [12] was above 100 µM in each case. The TGI in assay [13], in [14], in assay [15], in [16] and in [17] was above 100 µM in each case.
